{
  "source": "patent US4016176A",
  "about": "“Esters of 4-hydroxy-2,9-dioxatricyclo[4.3.1.0^3,7 ] decanes and processes for their production” (Kali-Chemie Pharma GmbH, priority 1973, dated 1977)",
  "key": {"mouse [1]": {"system": "mouse", "experiment": "prolongation of narcosis produced by hexobarbital in mice", "format": "in vivo", "details": "comparison of epimers", "source_text": "(§1) In the Table 3 which follows are listed results of tests pertaining to the effectiveness of various compounds that are disclosed herein."}, "mice [2]": {"system": "mice", "experiment": "narcosis (lateral position) in mice", "format": "in vivo, mouse", "details": "mouse", "source_text": "as §1"}, "cats": {"system": "cats", "experiment": "narcosis in cats, intravenous", "format": "in vivo, cat", "method": "(§2) The toxicity and narcotic effectiveness of this compound were determined in tests with cats and dogs. […] The intravenous administration of a dose equivalent to 5 milligrams per kilogram of body weight to cats produced a narcosis that persisted for 10 minutes, whereas doses of 10 and 15 milligrams per kilogram produced narcoses that persisted for 25 and 60 minutes, respectively."}, "mouse [3]": {"system": "mouse", "experiment": "ataxia in mice", "format": "in vivo", "details": "mouse", "source_text": "(§3) In the Table 3 which follows are listed results of tests pertaining to the effectiveness of various compounds that are disclosed herein. The results are included in the several columns under letters whose significance is as follows:\nC - ataxia: Dose in milligrams per kilogram of body weight required to produce ataxia in a mouse."}, "mice [4]": {"system": "mice", "experiment": "acute toxicity (LD50) in mice", "format": "in vivo, mouse", "details": "mouse", "source_text": "as §3\nA - lethal dose (LD50) to mice in milligrams per kilogram of body weight of the mouse when administered per os.\nB - lethal dose (LD50) to mice in milligrams per kilogram of body weight of the mouse when administered intraperitoneally.\nA. lethal dose (LD50) to mice in milligrams per kilogram body weight of the mouse when administered per os.\nB. lethal dose (LD50) to mice in milligrams per kilogram body weight of the mouse administered intraperitoneally.\nThe values specified in Tables 4 and 5 hereinafter refer to milligrams per kilogram of body weight of the mouse.\nTests performed in accordance with the procedure described by Campbell and Richter in Acta Pharmacol. et Toxicol., vol. […] This is indicated by the results that are reported in Table 5 in which the headings A and F have the same significance as hereinbefore while the values in the column heading L pertain to the dose in milligrams per kilogram of body weight that was required to produce a lowering of the rectal temperature, which are values indicative of the depressant effect of a compound upon the central nervous system."}, "dogs": {"system": "dogs", "experiment": "narcosis in dogs, intravenous", "format": "in vivo, dog", "details": "Canis lupus familiaris, narcosis for 1 hour, read-out: dose required to produce a narcosis that persisted for 1 hour", "method": "In dogs a dose of 17.5 milligrams of the compound per kilogram of body weight administered intravenously was required to produce a narcosis that persisted for 1 hour."}, "[5]": {"experiment": "acute toxicity in cats, intravenous", "details": "cat, in vivo, read-out: lethal dose (LD50) for cats", "method": "as §2"}, "[6]": {"experiment": "acute toxicity of Example 17 compound, p.o.", "details": "mouse, in vivo, po"}, "white mice": {"system": "white mice", "experiment": "spasmolytic effect"}, "[7]": {"experiment": "narcosis, Example 17 compound", "details": "in vivo"}},
  "data": [
    {"smiles": "C=C1C2OC(OC)C3C1CC(OC(=O)NCC)C3(C)O2", "note": "(stereo not drawn) [Compound No. 2076, 4α-(N-Ethylcarbamyloxy)-8-methoxy-3-methyl-10-methylene-2,9-dioxatricyclo[4.3.1.0^3,7]decane]", "values": [
      {"measurement": "prolongation of narcosis produced by hexobarbital (in words)", "setting": "mouse [1]", "result": "does not prolong narcosis produced by hexobarbital"},
      {"measurement": "ED50", "setting": "mice [2]; ip, 0.05 h, read-out: D - narcosis (lateral position): dose (ED50) which produces narcosis for 3 minutes in 50% of the mice, intraperitoneal, narcosis for 3 minutes, Table 3", "result": "< 100", "unit": "mg/kg"},
      {"measurement": "narcosis (in words)", "setting": "mice [2]; comparison of epimers", "result": "produces narcosis"},
      {"measurement": "duration of narcosis", "setting": "cats; 5 mg/kg", "result": 10, "unit": "min"},
      {"measurement": "duration of narcosis", "setting": "cats; 10 mg/kg", "result": 25, "unit": "min"},
      {"measurement": "duration of narcosis", "setting": "cats; 15 mg/kg", "result": 60, "unit": "min"},
      {"measurement": "doses effective in producing ataxia (in words)", "setting": "mouse [3]; 2067 versus 2076", "result": "identical doses are effective in producing ataxia"},
      {"measurement": "C - ataxia: dose required to produce ataxia in a mouse", "setting": "mouse [3]; Table 3", "result": "50 milligrams per kilogram of bod"},
      {"measurement": "B - lethal dose (LD50) to mice, intraperitoneally", "setting": "mice [4]; intraperitoneal, Table 3", "result": "527 milligrams per kilogram of bod"},
      {"measurement": "A - lethal dose (LD50) to mice, per os", "setting": "mice [4]; per os, Table 3", "result": "1025 milligrams per kilogram of bod"},
      {"measurement": "toxicity of the epimers (in words)", "setting": "mice [4]; 2067 versus 2076", "result": "substantially the same toxicity"},
      {"measurement": "minimal effective dose", "setting": "dogs", "result": 17.5, "unit": "mg/kg"},
      {"measurement": "LD50", "setting": "[5]", "result": 226, "unit": "mg/kg"}
    ]},
    {"smiles": "COC1OC2OC3(C)C(OC(=O)Nc4ccccc4)CC(C2C)C13", "note": "(stereo not drawn) [Example 17, 4β-(N-Phenylcarbamyloxy)-8-methoxy-3,10-dimethyl-2,9-dioxatricyclo[4.3.1.0^3,7]decane]", "values": [
      {"measurement": "LD50", "setting": "[6]", "result": 1500, "unit": "mg/kg"},
      {"measurement": "spasmolytic ED50 relative to the ED100 of atropine", "setting": "white mice; % of the ED100 of atropine", "result": 0.2, "unit": "%"},
      {"measurement": "spasmolytic ED50 relative to the ED100 of papaverine", "setting": "white mice; % of the ED100 of papaverine", "result": 0.1, "unit": "%"},
      {"measurement": "narcosis (in words)", "setting": "[7]", "result": "did not produce narcosis"}
    ]}
  ]
}
